Measurements as given in patent US9682925B2, “Cyclopropaneamine compound” (TAKEDA PHARMACEUTICAL COMPANY LIMITED, priority 2011, dated 2017).
Structures can show the parent of a compound that is named as a salt.

Assays:
Type in all cases: biochemical
MAO-B = biological target: T1, MAO-B (Homo sapiens, UniProt P27338); test: Measurement of MAO-B inhibitory activity (MAO-Glo Assay)
T1 construct: purchased Sigma-Aldrich Co. LLC
T1 sequence (P27338 1-520): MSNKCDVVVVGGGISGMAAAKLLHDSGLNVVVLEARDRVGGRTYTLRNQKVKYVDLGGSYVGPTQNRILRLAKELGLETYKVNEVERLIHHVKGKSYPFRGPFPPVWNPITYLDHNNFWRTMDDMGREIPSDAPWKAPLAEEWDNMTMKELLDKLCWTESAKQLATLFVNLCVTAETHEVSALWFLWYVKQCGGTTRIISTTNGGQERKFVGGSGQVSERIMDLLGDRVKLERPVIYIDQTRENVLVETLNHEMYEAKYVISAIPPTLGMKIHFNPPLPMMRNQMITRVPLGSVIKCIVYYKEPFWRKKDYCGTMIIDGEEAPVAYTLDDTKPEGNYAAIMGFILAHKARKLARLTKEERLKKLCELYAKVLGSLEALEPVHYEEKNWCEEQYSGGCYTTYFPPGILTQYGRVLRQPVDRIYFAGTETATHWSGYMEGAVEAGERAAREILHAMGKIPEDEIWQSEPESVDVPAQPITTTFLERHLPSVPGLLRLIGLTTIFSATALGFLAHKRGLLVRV
Procedure, shortened: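 Percent inhibition was calculated from luciferin-based luminescence, corrected with a blank lacking enzyme and a control lacking compound. The reaction ran 60 min at room temperature after adding MAO substrate (16 µM as added). This followed a 10 min compound–enzyme preincubation in HEPES pH 7.5 buffer.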

human LSD1(171-852) = biological target: T2, human LSD1(171-852) (Homo sapiens, UniProt O60341); test: Measurement of LSD1 inhibitory activity (time-resolved fluorescence, biotin-histone H3 mono methylated K4 peptide); settings: read-out: LSD1 IC50 value
T2 construct: to give hLSD1(171-852) purified product; made in house; host or cells: Escherichia coli C43(DE3) pLysS

MAO-A = biological target: T3, MAO-A (Homo sapiens, UniProt P21397); test: Measurement of MAO-A inhibitory activity (MAO-Glo Assay)
T3 construct: purchased Sigma-Aldrich Co. LLC
T3 sequence (P21397 1-527): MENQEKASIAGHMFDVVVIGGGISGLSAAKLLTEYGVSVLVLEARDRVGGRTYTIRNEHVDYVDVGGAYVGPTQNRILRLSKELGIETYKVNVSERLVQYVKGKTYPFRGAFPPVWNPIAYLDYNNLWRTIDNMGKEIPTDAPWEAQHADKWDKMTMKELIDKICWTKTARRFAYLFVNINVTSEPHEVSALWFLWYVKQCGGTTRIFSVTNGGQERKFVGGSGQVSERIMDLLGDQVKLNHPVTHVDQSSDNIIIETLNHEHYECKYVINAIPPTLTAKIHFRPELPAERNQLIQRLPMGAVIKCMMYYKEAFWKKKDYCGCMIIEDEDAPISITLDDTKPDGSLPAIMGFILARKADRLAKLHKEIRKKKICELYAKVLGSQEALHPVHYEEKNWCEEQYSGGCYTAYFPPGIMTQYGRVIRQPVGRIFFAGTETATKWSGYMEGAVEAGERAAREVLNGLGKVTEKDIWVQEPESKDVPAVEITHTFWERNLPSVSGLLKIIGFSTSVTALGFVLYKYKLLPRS
Procedure, shortened: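 MAO-A (400 ng) was pre-incubated with compound 10 min at room temperature in 100 mM HEPES pH 7.5, 5% glycerol, then MAO substrate (160 μM stock) added for 60 min. Luciferin detection reagent, 20 min, luminescence; % inhibition against no-compound control minus no-enzyme blank.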

| Structure (SMILES) | IC50 (MAO-B) | IC50 (human LSD1(171-852)) | IC50 (MAO-A) |
| --- | --- | --- | --- |
| O=C(Nc1ccc([C@@H]2C[C@H]2NCC2CC2)cc1)c1cc2ccccc2o1 (relative stereo) [Example 129, N-(4-{trans-2-[(cyclopropyl-methyl)amino]cyclo-propyl}phenyl)-1-benzofuran-2-carboxamide] | > 10 µM | < 100 nM | 8.2 µM |
| O=C(Nc1ccc([C@@H]2C[C@H]2NCc2cccs2)cc1)c1ccccc1 (relative stereo) [Example 13, N-(4-{trans-2-[(thiophen-2-ylmethyl)amino]-cyclopropyl}-phenyl)benzamide] | > 10 µM | < 100 nM | > 10 µM |
| NS(=O)(=O)c1cccc(C(=O)Nc2ccc([C@@H]3C[C@H]3NCC3CC3)cc2)c1 (relative stereo) [Example 145, N-(4-{trans-2-[(cyclopropylmethyl)amino]cyclopropyl}phenyl)-3-sulfamoylbenzamide hydrochloride] | > 10 µM | < 100 nM | > 10 µM |
| O=C(Nc1ccc([C@@H]2C[C@H]2NCC2CC2)cc1)c1cccc(-n2cnnn2)c1 (relative stereo) [Example 100, N-(4-{trans-2-[(cyclopropylmethyl)-amino]cyclopropyl}-phenyl)-3-(1H-tetrazol-1-yl)benzamide] | > 10 µM | < 100 nM | > 10 µM |
| O=C(Nc1ccc([C@@H]2C[C@H]2NC2CCc3ccccc32)cc1)c1ccccc1 (relative stereo) [Example 20, N-{4-[trans-2-(2,3-dihydro-1H-inden-1-ylamino)cyclo-propyl]phenyl}-benzamide] | > 10 µM | < 100 nM | > 10 µM |
| O=C(Nc1ccc([C@@H]2C[C@H]2NCc2ccccc2)cc1)c1cccc(NCc2ccccc2)c1 (relative stereo) [Example 29, 3-(benzylamino)-N-{4-[trans-2-(benzylamino)cyclopropyl]phenyl}benzamide] | > 10 µM | 110 nM | 5.2 µM |
| O=C(Nc1ccc([C@@H]2C[C@H]2NCCCc2ccccc2)cc1)c1ccccc1 (relative stereo) [Example 14, N-(4-{trans-2-[(3-phenyl-propyl)amino]-cyclopropyl}-phenyl)benzamide] | > 10 µM | < 100 nM | > 10 µM |
| Cc1ccc(-c2ccc(C(=O)Nc3ccc([C@@H]4C[C@H]4NCC4CC4)cc3)cc2)cc1 (relative stereo) [Example 118, N-(4-{trans-2-[(cyclopropylmethyl)amino]cyclopropyl}-phenyl)-4′-methylbiphenyl-4-carboxamide] | > 10 µM | 100 nM | > 10 µM |
| O=C(Nc1ccc([C@@H]2C[C@H]2NCc2cccnc2)cc1)c1ccccc1 (relative stereo) [Example 12, N-(4-{trans-2-[(pyridin-3-ylmethyl)amino]cyclopropyl}phenyl)-benzamide bis(trifluoroacetate)] | > 10 µM | < 100 nM | 4.7 µM |
| O=C(Nc1ccc([C@@H]2C[C@H]2NCc2ccc3cccnc3n2)cc1)c1cccc(C(F)(F)F)c1 (relative stereo) [Example 162, N-(4-{trans-2-[(1,8-naphthyridin-2-ylmethyl)amino]cyclopropyl}phenyl)-3-(trifluoromethyl)benzamide hydrochloride] | > 10 µM | < 100 nM | 2.1 µM |
| O=C1c2ccccc2C(=O)N1c1ccc([C@@H]2C[C@H]2NCC2CC2)cc1 (relative stereo) [Example 143, 2-(4-{trans-2-[(cyclopropylmethyl)amino]cyclopropyl}phenyl)-1H -isoindole-1,3(2H)-dione hydrochloride] | > 10 µM | < 100 nM | 4.5 µM |

More lines, now with the values ahead:

| IC50 (MAO-B) | IC50 (human LSD1(171-852)) | IC50 (MAO-A) | Structure (SMILES) |
| --- | --- | --- | --- |
| > 10 µM | < 100 nM | > 10 µM | CN1CCC(N[C@H]2C[C@@H]2c2ccc(NC(=O)c3cccc(C(F)(F)F)c3)cc2)CC1 (single isomer, unassigned) [Example 152, N-(4-{(1R,2S) or (1S,2R)-2-[(1-methylpiperidin-4-yl)amino]cyclopropyl}phenyl)-3-(trifluoromethyl)benzamide dihydrochloride] |
| > 10 µM | < 100 nM | > 10 µM | O=C(Nc1ccc([C@@H]2C[C@H]2NCC2CC2)cc1)c1ccc(-c2ncccn2)cc1 (relative stereo) [Example 138, N-(4-{trans-2-[(cyclopropylmethyl)amino]cyclopropyl}phenyl)-4-(pyrimidin-2-yl)benzamide hydrochloride] |
| > 10 µM | < 100 nM | > 10 µM | Cc1ccc(C(=O)Nc2ccc([C@@H]3C[C@H]3NCC3CC3)cc2)cc1C (relative stereo) [Example 105, N-(4-{trans-2-[(cyclopropylmethyl)amino]cyclopropyl}phenyl)-3,4-dimethylbenzamide hydrochloride] |
| > 10 µM | < 100 nM | > 10 µM | O=C(Nc1ccc([C@@H]2C[C@H]2NCc2ccncc2)cc1)c1ccc(-c2ccccc2)cc1 (relative stereo) [Example 39, N-(4-{trans-2-[(pyridin-4-ylmethyl)amino]-cyclopropyl}-phenyl)biphenyl-4-carboxamide] |
| > 10 µM | 200 nM | > 10 µM | CC(C)(C)n1cc(C(=O)Nc2ccc([C@@H]3C[C@H]3NCC3CC3)cc2)cn1 (relative stereo) [Example 164, 1-tert-butyl-N-(4-{trans-2-[(cyclopropylmethyl)amino]cyclopropyl}phenyl)-1H-pyrazole-4-carboxamide hydrochloride] |
| > 10 µM | < 100 nM | > 10 µM | O=C(Nc1ccc([C@@H]2C[C@H]2NC2CCCCCC2)cc1)c1ccccc1 (relative stereo) [Example 23, N-{4-[trans-2-(cycloheptyl-amino)cyclo-propyl]phenyl}-benzamide] |
| > 10 µM | < 100 nM | 2.5 µM | O=C(Nc1ccc([C@@H]2C[C@H]2NCC2CC2)cc1)c1nc(-c2ccccc2)cs1 (relative stereo) [Example 125, N-(4-{trans-2-[(cyclopropyl-methyl)amino]cyclo-propyl}phenyl)-4-phenyl-1,3-thiazole-2-carboxamide] |
| > 10 µM | < 100 nM | > 10 µM | O=C(Nc1ccc([C@@H]2C[C@H]2NCC2CC2)cc1)c1ccc(C(F)(F)F)cc1 (relative stereo) [Example 69, N-(4-{trans-2-[(cyclopropylmethyl)amino]cyclopropyl}phenyl)-4-(trifluoromethyl)benzamide hydrochloride] |
| > 10 µM | < 100 nM | 9.2 µM | O=C(Nc1ccc([C@@H]2C[C@H]2NCCOCc2ccccc2)cc1)c1ccccc1 (relative stereo) [Example 26, N-[4-(trans-2-{[2-(benzyloxy)-ethyl]amino}-cyclopropyl)-phenyl]benzamide] |
| > 10 µM | < 100 nM | 7.7 µM | CN1CCC(N[C@@H]2C[C@H]2c2ccc(NC(=O)c3cccc(Br)c3)cc2)CC1 (relative stereo) [Example 5, 3-bromo-N-(4-{trans-2-[(1-methylpiperidin-4-yl)amino]cyclopropyl}phenyl)benzamide] |
